In PubChem BioAssay (NCI):
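Cells were grown in 96-well plates and exposed to each compound for 48 hours at five concentrations; endpoints were interpolated linearly between bracketing concentrations, or set to the highest concentration if not reached. TGI: concentration producing complete growth inhibition.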

Tests used:
Assay in all cases: growth of human tumour cells (NCI), 48 h
HOP-92 NSCLC = system: HOP-92 NSCLC
786-0 renal = system: 786-0 renal
T-47D breast = system: T-47D breast
SF-268 CNS = system: SF-268 CNS
LOX IMVI melanoma = system: LOX IMVI melanoma
HL-60(TB) leukemia = system: HL-60(TB) leukemia
HCC-2998 colon = system: HCC-2998 colon
HOP-62 NSCLC = system: HOP-62 NSCLC
NCI/ADR-RES ovarian = system: NCI/ADR-RES ovarian
KM12 colon = system: KM12 colon
SF-539 CNS = system: SF-539 CNS
UO-31 renal = system: UO-31 renal
OVCAR-3 ovarian = system: OVCAR-3 ovarian
ACHN renal = system: ACHN renal
SK-MEL-28 melanoma = system: SK-MEL-28 melanoma
EKVX NSCLC = system: EKVX NSCLC
A549 NSCLC = system: A549 NSCLC
PC-3 prostate = system: PC-3 prostate
SR leukemia = system: SR leukemia
A498 renal = system: A498 renal

| Structure (SMILES) | TGI (HOP-92 NSCLC) | TGI (786-0 renal) | TGI (T-47D breast) | TGI (SF-268 CNS) | TGI (LOX IMVI melanoma) | TGI (HL-60(TB) leukemia) | TGI (HCC-2998 colon) | TGI (HOP-62 NSCLC) | TGI (NCI/ADR-RES ovarian) | TGI (KM12 colon) | TGI (SF-539 CNS) | TGI (UO-31 renal) | TGI (OVCAR-3 ovarian) | TGI (ACHN renal) | TGI (SK-MEL-28 melanoma) | TGI (EKVX NSCLC) | TGI (A549 NSCLC) | TGI (PC-3 prostate) | TGI (SR leukemia) | TGI (A498 renal) |
| --- | --- | --- | --- | --- | --- | --- | --- | --- | --- | --- | --- | --- | --- | --- | --- | --- | --- | --- | --- | --- |
| CN1CCN(c2ccc3[nH]c(C4=C(O)C(=O)[C@@H]5C(=C4O)N=C(CO)N5C)nc3n2)CC1 | > 100 µM | > 100 µM | > 100 µM | > 100 µM | > 100 µM | > 100 µM | > 100 µM | > 100 µM | > 100 µM | > 100 µM | > 100 µM | > 100 µM | > 100 µM | > 100 µM | > 100 µM | > 100 µM | > 100 µM | > 100 µM |  |  |
| O=C(Cc1ccccc1)NN1C(=O)C(Cl)C1c1cccc([N+](=O)[O-])c1 (stereo not drawn) | 30.5 µM | > 84.4 µM |  | > 100 µM |  | 29.5 µM | > 100 µM | > 100 µM |  | > 100 µM | > 100 µM | > 100 µM | > 86.8 µM | > 100 µM | > 100 µM | > 100 µM | > 100 µM |  | 22.1 µM | > 100 µM |
| O=C1CCCC2=C1CC1=C(CCCC1=O)N2c1ccc([N+](=O)[O-])cc1 |  | > 100 µM |  | > 100 µM | > 100 µM | > 100 µM | > 100 µM |  | > 100 µM | > 100 µM | > 100 µM | > 100 µM | > 100 µM | > 100 µM | > 100 µM | > 100 µM | > 100 µM | > 100 µM | > 100 µM | > 100 µM |
| COC(=O)[C@@H](OC(C)=O)[C@@H](OC(C)=O)c1nnc2ccc(Cl)nn12 |  | > 100 µM | > 100 µM | > 100 µM | > 100 µM | > 100 µM | > 100 µM | > 100 µM | > 100 µM | > 100 µM | > 100 µM |  | > 100 µM | > 100 µM | > 100 µM | > 100 µM | > 100 µM | > 100 µM |  | > 100 µM |
| Cc1ccc(C(=O)N2CCCCC2)cc1N=NN(C)C |  | > 100 µM |  | > 100 µM | > 100 µM | > 100 µM | > 100 µM | > 100 µM |  | > 100 µM | > 100 µM | > 100 µM | > 100 µM | > 100 µM | > 100 µM | > 100 µM | > 100 µM |  | > 100 µM | > 100 µM |
| O=C1C=CC(=O)c2cc(Sc3ccccc3)c(=O)c(Sc3ccccc3)cc21 | 50.5 µM | > 100 µM |  | > 100 µM | > 100 µM | 27.7 µM | > 100 µM | > 100 µM |  | > 100 µM | > 100 µM | > 100 µM | > 100 µM | 36 µM | > 100 µM | > 100 µM | > 100 µM |  | > 100 µM | > 100 µM |
| O=P(CCOc1ccccc1OCCP(=O)(c1ccccc1)c1ccc2c(c1)OCCOCCOCCOCCO2)(c1ccccc1)c1ccc2c(c1)OCCOCCOCCOCCO2 (stereo not drawn) | > 100 µM | > 100 µM |  | > 100 µM | > 100 µM | > 100 µM | > 100 µM | > 100 µM |  |  | > 100 µM | > 100 µM | > 100 µM | > 100 µM | > 100 µM | > 100 µM | > 100 µM |  | > 100 µM | > 100 µM |
| CC1=NC=C(O)c2ccccc2O1 | > 100 µM | > 100 µM |  | > 100 µM | > 100 µM | > 100 µM | > 100 µM | > 100 µM |  | > 100 µM | > 100 µM | > 100 µM | > 100 µM | > 100 µM | > 100 µM | > 100 µM | > 100 µM |  |  | > 100 µM |
| COC(=O)[C@H](COC(C)(C)C)NC(=O)N[C@H](C)c1ccccc1 | > 100 µM | > 100 µM |  | > 100 µM | > 100 µM | > 100 µM | > 100 µM | > 100 µM | > 100 µM | > 100 µM | > 100 µM | > 100 µM | > 100 µM | > 100 µM | > 100 µM | > 100 µM | > 100 µM | > 100 µM | > 100 µM | > 100 µM |
| CCc1ccc(Nc2cc(=O)n(C)c(SCc3ccccc3)n2)cc1 | > 100 µM | 34.4 µM | > 100 µM | > 100 µM | > 100 µM | > 100 µM |  | > 100 µM | > 100 µM | > 100 µM | > 100 µM | > 100 µM | > 100 µM | > 100 µM |  | > 100 µM | > 100 µM |  | > 100 µM | 29.7 µM |
| c1ccc2nn(C3CCCO3)nc2c1 (stereo not drawn) |  | > 100 µM | > 100 µM | > 100 µM |  | > 100 µM | > 100 µM | > 100 µM | > 100 µM |  | > 100 µM |  | > 100 µM |  |  | > 100 µM | > 100 µM | > 100 µM |  | > 100 µM |
| CN(C)CCN(C)C(=O)C1CCCN1C(=O)OCc1ccccc1 (stereo not drawn) | > 100 µM | > 100 µM |  | > 100 µM | > 100 µM | > 100 µM | > 100 µM | > 100 µM |  |  | > 100 µM | > 100 µM | > 100 µM | > 100 µM | > 100 µM | > 100 µM | > 100 µM |  | > 100 µM | > 100 µM |
| CCCCCC#COC1CC(C)CC[C@@H]1C(C)C (stereo partly drawn) | > 100 µM | > 100 µM |  | > 100 µM | 29.9 µM | 55 µM | > 100 µM | > 100 µM |  | > 100 µM | > 100 µM | > 100 µM | > 100 µM | > 100 µM | > 100 µM | > 100 µM | > 100 µM |  |  |  |
